According to patent publication US11572398B2, “GLP-1 derivatives and uses thereof” (Novo Nordisk A/S, priority 2014, dated 2023):
Like-named read-outs stand apart in the source and are kept apart here.

How the values were obtained:
human GLP-1 receptor [1] = target: T1, human GLP-1 receptor (Homo sapiens, UniProt P43220); test: In vitro potency: CRE luciferase reporter gene assay in BHK cells expressing the human GLP-1 receptor; assay type: cell-based
T1 construct: expressed in transfected cells; host or cells: BHK cells (parent line BHKTS13), clone FCW467-12A; membrane preparation
Protocol: The purpose of this example is to test the activity, or potency, of the GLP-1 derivatives in vitro. The in vitro potency is the measure of human GLP-1 receptor activation in a whole cell assay.
In vitro potency was determined by measuring the response of the human GLP-1 receptor in a reporter gene assay. The assay was performed in a stably transfected BHK cell line that expresses the human GLP-1 receptor and contains the DNA for the cAMP response element (CRE) coupled to a promoter and the gene for firefly luciferase (CRE luciferase). When the human GLP-1 receptor is activated it results in the production of cAMP, which in turn results in the luciferase protein being expressed. When assay incubation is completed the luciferase substrate (luciferin) is added and the enzyme converts luciferin to oxyluciferin to produce bioluminescence. The luminescence is measured as the readout for the assay.
The cells were cultured at 5% CO2 in cell culture medium. They were aliquoted and stored in liquid nitrogen. Before each assay an aliquot was taken up and washed twice in PBS before being suspended at the desired concentration in the assay specific buffer.
The assay buffer consisted of 2% ovalbumin and 0.2% Pluronic F-68 in assay medium.
1) Cell stocks were thawed in a 37° C. water bath.
2) Cells were washed three times in PBS.
3) Cells were counted and adjusted to 5×10^3 cells/50 μl (1×10^5 cells/ml) in assay medium. A 50 μl aliquot of cells was transferred to each well in the assay plate.
4) Stocks of the test compounds and reference compounds were diluted to a concentration of 0.2 μM in assay buffer. […] 8) A 100 μl aliquot of steadylite plus reagent was added to each well of the assay plate. 9) Each assay plate was covered with aluminum foil to protect it from light and shaken for 30 min at room temperature. 10) Each assay plate was read in a BioTek Synergy 2 Multi-Mode Reader. Calculations and Results
The data from the BioTek Synergy 2 Multi-Mode Reader were transferred to GraphPad Prism software. The software performs a non-linear regression (log(agonist) vs response (three parameters)).
A minimum of two replicates were measured for each sample. The reported EC50 values are averages of all of the measured values for each compound.

human GLP-1 receptor [2] = target: T1, human GLP-1 receptor; test: GLP-1 receptor binding: competitive binding assay (125I-GLP-1, SPA) on isolated membranes at low and high HSA
Protocol: The purpose of this example is to test the receptor binding of the GLP-1 derivatives in vitro. The receptor binding is a measure of affinity of a derivative for the human GLP-1 receptor.
Each derivative is added in a series of concentrations to isolated membranes containing the human GLP-1 receptor and displacement of the labelled ligand is monitored. The receptor binding is reported as the concentration at which half of the labelled ligand is displaced from the receptor, the IC50 value.
Buffer 1 consisted of 20 mM Na-HEPES plus 10 mM EDTA and pH was adjusted to 7.4. Buffer 2 consisted of 20 mM Na-HEPES plus 0.1 mM EDTA and pH was adjusted to 7.4. Assay buffer consisted of 50 mM HEPES supplemented with 5 mM EGTA, 5 mM MgCl2, 0.005% Tween 20 and pH was adjusted to 7.4. An 8% albumin stock consisted of HSA dissolved at 8% (w/v) in assay buffer. An 0.02% albumin stock consisted of HSA dissolved at 0.02% (w/v) in assay buffer.
The cells express the human GLP-1 receptor.
The cells were grown at 5% CO2 in DMEM, 10% fetal calf serum, 1% Pen/Strep (Penicillin/Streptomycin) and 1.0 mg/ml of the selection marker G418. To make a membrane preparation the cells were grown to approximately 80% confluence. The cells were washed twice in phosphate-buffered saline and harvested. The cells were pelleted using a brief centrifugation and the cell pellet was kept on ice. […] The homogenate was centrifuged for 15 minutes. The pellet was re-suspended (homogenised) in 10 ml buffer 2 and centrifuged. This step was repeated once more. The resulting pellet was re-suspended in buffer 2 and the protein concentration was determined. The membranes were aliquoted and stored at minus 80° C.
1. […] Assay continued with step 3.
2. For the receptor binding assay in the presence of high HSA (2%) 50 μl of the 8% albumin stock was added to each well of an assay plate. Assay continued with step 3.
4. Cell membrane aliquots were thawed and diluted to their working concentration. Fifty μl were added to each well in the assay plate.
5. WGA SPA beads were suspended in assay buffer at 20 mg/ml. The suspension was diluted to 10 mg/ml in assay buffer just prior to addition to the assay plate. Fifty μl were added to each well in the assay plate.
6. […] A 25 μl aliquot was reserved for measuring total counts/well.
7. The assay plate was incubated for 2 h at 30° C.
8. The assay plate was centrifuged for 10 min.
9. The assay plate was read in a Packard TopCount NXT instrument.
The data from the TopCount instrument were transferred to GraphPad Prism software. Individual replicates were analysed using non-linear regression. IC50 values were calculated by the software and reported in nM. The reported values are averages of all of the measured values for each compound.

[3] = whole cell reporter gene assay, BHK cells, human GLP-1 receptor, average of at least two replicates, read-out: EC50
[4] = low HSA (max. 0.001% final assay concentration), read-out: Low HSA IC50

T1 sequence (P43220 24-463): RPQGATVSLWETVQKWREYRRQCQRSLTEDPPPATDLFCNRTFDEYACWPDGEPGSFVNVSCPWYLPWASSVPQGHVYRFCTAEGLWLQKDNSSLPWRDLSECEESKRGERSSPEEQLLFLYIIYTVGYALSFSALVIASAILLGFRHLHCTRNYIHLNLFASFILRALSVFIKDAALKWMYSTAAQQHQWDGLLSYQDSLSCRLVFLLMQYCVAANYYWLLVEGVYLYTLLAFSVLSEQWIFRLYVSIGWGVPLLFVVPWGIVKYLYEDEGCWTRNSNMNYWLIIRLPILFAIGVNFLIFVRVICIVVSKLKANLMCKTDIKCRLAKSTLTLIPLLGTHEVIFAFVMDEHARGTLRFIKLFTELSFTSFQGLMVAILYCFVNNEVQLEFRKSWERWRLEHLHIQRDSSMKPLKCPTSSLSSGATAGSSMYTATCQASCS

Row | EC50 (human GLP-1 receptor [1]; [3]) | IC50 (human GLP-1 receptor [2]; high HSA (2.0% final assay concentration), read-out: High HSA IC50) | IC50 (human GLP-1 receptor [2]; [4]) | SMILES | EC50 (human GLP-1 receptor [1]) | IC50 (human GLP-1 receptor [2]; High HSA IC50, high HSA (2.0% final assay concentration)) | IC50 (human GLP-1 receptor [2]; Low HSA IC50, low HSA (max. 0.001% final assay concentration))
1 | 10 pM | 27 nM | 0.19 nM | CC[C@H](C)[C@H](NC(=O)[C@H](Cc1ccccc1)NC(=O)[C@H](CCC(=O)O)NC(=O)[C@H](CCCNC(=N)N)NC(=O)[C@H](C)NC(=O)[C@H](C)NC(=O)[C@H](CCC(N)=O)NC(=O)[C@H](CCC(=O)O)NC(=O)[C@H](CCC(=O)O)NC(=O)[C@H](CC(C)C)NC(=O)[C@H](Cc1ccc(O)cc1)NC(=O)[C@H](CO)NC(=O)[C@H](CO)NC(=O)[C@@H](NC(=O)[C@H](CC(=O)O)NC(=O)[C@H](CO)NC(=O)[C@@H](NC(=O)[C@H](Cc1ccccc1)NC(=O)[C@@H](NC(=O)CNC(=O)[C@H](CCC(=O)O)NC(=O)C(C)(C)NC(=O)[C@@H](N)Cc1c[nH]cn1)[C@@H](C)O)[C@@H](C)O)C(C)C)C(=O)N[C@@H](C)C(=O)N[C@@H](Cc1c[nH]c2ccccc12)C(=O)N[C@@H](CC(C)C)C(=O)N[C@H](C(=O)N[C@@H](CCCNC(=N)N)C(=O)NCC(=O)N[C@@H](CCCNC(=N)N)C(=O)N[C@@H](CCCCNC(=O)CN(CCCNC(=O)CCOCCOCCOCCOCCOCCOCCOCCOCCOCCOCCOCCOCCNC(=O)[C@@H](N)CCCCNC(=O)[C@@H](N)CCCCNC(=O)CCCCCCCCCCCCCCCCCCC(=O)O)CCCNC(=O)CCOCCOCCOCCOCCOCCOCCOCCOCCOCCOCCOCCOCCNC(=O)[C@@H](N)CCCCNC(=O)[C@@H](N)CCCCNC(=O)CCCCCCCCCCCCCCCCCCC(=O)O)C(=O)O)C(C)C [Example 8, N{Epsilon-37}-[2-[bis[3-[3-[2-[2-[2-[2-[2-[2-[2-[2-[2-[2-[2-[2-[[(2S)-2-amino-6-[[(2S)-2-amino-6-(19-carboxynonadecanoylamino)hexanoyl]amino]hexanoyl]amino]ethoxy]ethoxy]ethoxy]ethoxy]ethoxy]ethoxy]ethoxy]ethoxy]ethoxy]ethoxy]ethoxy]ethoxy]propanoylamino]propyl]amino]acetyl]-[Aib8,Glu22,Arg26,Arg34,Lys37]-GLP-1-(7-37)-peptide] |  |  | 
2 | 6.3 pM |  | 0.04 nM | CC[C@H](C)[C@H](NC(=O)[C@H](Cc1ccccc1)NC(=O)[C@H](CCC(=O)O)NC(=O)[C@H](CCCNC(=N)N)NC(=O)[C@H](C)NC(=O)[C@H](C)NC(=O)[C@H](CCC(N)=O)NC(=O)[C@H](CCC(=O)O)NC(=O)[C@H](CCC(=O)O)NC(=O)[C@H](CC(C)C)NC(=O)[C@H](Cc1ccc(O)cc1)NC(=O)[C@H](CO)NC(=O)[C@H](CO)NC(=O)[C@@H](NC(=O)[C@H](CC(=O)O)NC(=O)[C@H](CO)NC(=O)[C@@H](NC(=O)[C@H](Cc1ccccc1)NC(=O)[C@@H](NC(=O)CNC(=O)[C@H](CCC(=O)O)NC(=O)C(C)(C)NC(=O)[C@@H](N)Cc1c[nH]cn1)[C@@H](C)O)[C@@H](C)O)C(C)C)C(=O)N[C@@H](C)C(=O)N[C@@H](Cc1c[nH]c2ccccc12)C(=O)N[C@@H](CC(C)C)C(=O)N[C@H](C(=O)N[C@@H](CCCNC(=N)N)C(=O)NCC(=O)N[C@@H](CCCNC(=N)N)C(=O)N[C@@H](CCCCNC(=O)CN(CCCNC(=O)COCCOCCNC(=O)COCCOCCNC(=O)COCCOCCNC(=O)COCCOCCNC(=O)[C@@H](N)CCCCNC(=O)[C@@H](N)CCCCNC(=O)CCCNC(=O)CCCCCCCCCCCCCCCS(=O)(=O)O)CCCNC(=O)COCCOCCNC(=O)COCCOCCNC(=O)COCCOCCNC(=O)COCCOCCNC(=O)[C@@H](N)CCCCNC(=O)[C@@H](N)CCCCNC(=O)CCCNC(=O)CCCCCCCCCCCCCCCS(=O)(=O)O)C(=O)O)C(C)C [Example 14, N{Epsilon-37}-[2-[bis[3-[[2-[2-[2-[[2-[2-[2-[[2-[2-[2-[[2-[2-[2-[[(2S)-2-amino-6-[[(2S)-2-amino-6-[4-(16-sulfohexadecanoylamino)butanoylamino]hexanoyl]amino]hexanoyl]amino]ethoxy]ethoxy]acetyl]amino]ethoxy]ethoxy]acetyl]amino]ethoxy]ethoxy]acetyl]amino]ethoxy]ethoxy]acetyl]amino]propyl]amino]acetyl]-[Aib8,Glu22,Arg26,Arg34,Lys37]-GLP-1-(7-37)-peptide] |  |  | 
3 |  |  |  | CC[C@H](C)[C@H](NC(=O)[C@H](Cc1ccccc1)NC(=O)[C@H](CCC(=O)O)NC(=O)[C@H](CCCNC(=N)N)NC(=O)[C@H](C)NC(=O)[C@H](C)NC(=O)[C@H](CCC(N)=O)NC(=O)[C@H](CCC(=O)O)NC(=O)[C@H](CCC(=O)O)NC(=O)[C@H](CC(C)C)NC(=O)[C@H](Cc1ccc(O)cc1)NC(=O)[C@H](CO)NC(=O)[C@H](CO)NC(=O)[C@@H](NC(=O)[C@H](CC(=O)O)NC(=O)[C@H](CO)NC(=O)[C@@H](NC(=O)[C@H](Cc1ccccc1)NC(=O)[C@@H](NC(=O)CNC(=O)[C@H](CCC(=O)O)NC(=O)C(C)(C)NC(=O)[C@@H](N)Cc1c[nH]cn1)[C@@H](C)O)[C@@H](C)O)C(C)C)C(=O)N[C@@H](C)C(=O)N[C@@H](Cc1c[nH]c2ccccc12)C(=O)N[C@@H](CC(C)C)C(=O)N[C@H](C(=O)N[C@@H](CCCNC(=N)N)C(=O)NCC(=O)N[C@@H](CCCNC(=N)N)C(=O)N[C@@H](CCCCNC(=O)CN(CCCNC(=O)COCCOCCNC(=O)COCCOCCNC(=O)COCCOCCNC(=O)COCCOCCNC(=O)COCCOCCNC(=O)COCCOCCNC(=O)[C@@H](N)CCCCNC(=O)[C@@H](N)CCCCNC(=O)CCCNC(=O)CCCCCCCCCCCCCCCS(=O)(=O)O)CCCNC(=O)COCCOCCNC(=O)COCCOCCNC(=O)COCCOCCNC(=O)COCCOCCNC(=O)COCCOCCNC(=O)COCCOCCNC(=O)[C@@H](N)CCCCNC(=O)[C@@H](N)CCCCNC(=O)CCCNC(=O)CCCCCCCCCCCCCCCS(=O)(=O)O)C(=O)O)C(C)C [Example 15] | 5.6 pM | 3.4 nM | 0.05 nM
